For one series, the system named is nucleic acid. Conditions: cited from earlier work.
Series [1] can be described thus: Hydrolytic and thermal stability for pre-cast gel preparation and storage. In kind it is physicochemical. An excerpt:
In a gel electrophoresis application, an agarose gel may be prepared by heating (via microwave, for example) a suspension of agarose powder in an electrophoresis buffer, such as lithium borate buffer, thereby producing a hot agarose solution, pouring the solution onto a slab, and cooling the solution, thereby producing a useful gel. […] For example, in a pre-cast gel staining application, SYBR Green I dye is generally combined with an agarose solution after the initial agarose suspension has been heated and the resulting agarose solution has been cooled as much as possible. Combining the SYBR Green I dye with the agarose solution in this manner may be a delicate task, as if the temperature of the agarose solution is too high, the dye my decompose, and if the temperature of the agarose solution is too low, the agarose solution may gel up such that the dye and the solution are inadequately combined or mixed. Further by way of example, in a pre-cast gel staining application, a pre-cast gel prepared with SYBR Green I is generally used within 24 hours, as it may lose utility thereafter. […] This dye may offer sufficient to exceptional stability, as well as low or minimal background fluorescence relative to EB and low or minimal toxicity relative to EB, as further described below.

Series [2] in a line: Stability of dye in gel electrophoresis buffer (room temperature, microwave heating). In kind it is physicochemical.
For series [3] the following is noted: cited from earlier work.
For series [4] the following is noted: test not named; cited from earlier work.
For a further series, the system named is cells. Conditions: cited from earlier work.
In the next series the test system is aquatic life. Conditions: in vivo; cited from earlier work.
The mark [5] stands for this setting: pre-cast gel containing the dye.

SMILES strings stand for the structures. Where two headings read alike, the source gives them in different places.

`CN(C)c1ccc2cc3ccc(N(C)C)cc3nc2c1` [AO, Acridine orange]: the “affinity for nucleic acid” value in the series with nucleic acid is listed as “very low”.
Turning to `Nc1ccc2c(c1)c(-c1ccccc1)[n+](CCCCCC(=O)NCCCOCCOCCOCCCNC(=O)CCCCC[n+]1c(-c3ccccc3)c3cc(N)ccc3c3ccc(N)cc31)c1cc(N)ccc21` [Dye No. 35], the “hydrolytic and thermal stability for preparation of a pre-cast gel” value in series [1] is “sufficient hydrolytic and thermal stability”. For the same molecule, the “storage of pre-cast gel without loss of performance” value in series [1] (setting [5]) is on record as “at least 3 months”. Further, the “time heated in a microwave oven without decomposition” value in series [2] (in TBE buffer) was “at least 10 minutes”. In addition, the “time stable in electrophoresis buffer” value in series [2] (lithium borate buffer, room temperature) is on record as “at least 6 months”.
`CC[n+]1c(-c2ccccc2)c2cc(N)ccc2c2ccc(N)cc21` [EB, ethidium bromide]: in series [3] (reference dyes, general statement), the “hydrolytic and thermal stability for preparation of a pre-cast gel” value was “sufficiently stable, both hydrolytically and thermally”. In addition, in series [4], the mutagenicity result was “powerful mutagen”.
On to `CN(C)c1ccc2cc3ccc(N(C)C)cc3[n+](CCCCCC(=O)NCCCOCCOCCOCCCNC(=O)CCCCC[n+]3c4cc(N(C)C)ccc4cc4ccc(N(C)C)cc43)c2c1.[I-].[I-]` [GelGreen], for which the cytotoxicity entry in the series with cells was “noncytotoxic”. For the same molecule, the “safety to aquatic life” value with aquatic life is on record as “safe to aquatic life”.
Turning to `Nc1ccc2c(c1)c(-c1ccccc1)[n+](CCCCCC(=O)NCCCOCCOCCOCCCNC(=O)CCCCC[n+]1c(-c3ccccc3)c3cc(N)ccc3c3ccc(N)cc31)c1cc(N)ccc21.[I-].[I-]` [GelRed], the cytotoxicity entry in the series with cells is “noncytotoxic”. In addition, the “safety to aquatic life” value in the series with aquatic life is on record as “safe to aquatic life”.
For `CCCN(CCCN(C)C)c1cc(/C=C2/Sc3ccccc3N2C)c2ccccc2[n+]1-c1ccccc1` [SYBR Green I], the “time within which pre-cast gel is used before losing utility” value in series [3] (setting [5]) was ≤ 24 h. Further, in the series with cells, the cytotoxicity result is given as “cytotoxic at relatively high concentrations”.
For `CCCN1C=C/C(=C\c2sc3ccccc3[n+]2C)c2ccccc21` [SYBR Safe], in the series with cells, the cytotoxicity result is “cytotoxic at relatively high concentrations”. For the same molecule, in the series with aquatic life, the “safety to aquatic life” value was “safe to aquatic life”.

The record behind these values is patent US8877437B1, “Methods of using dyes in association with nucleic acid staining or detection” (Biotium, Inc., priority 2009, dated 2014).
